According to paper PMC12126525, “Mechanism of ATP hydrolysis in the Hsp70 BiP nucleotide-binding domain” (Nature Communications, 2025):

Tests used:
Design in all cases: His6 (N, cleaved yes); made in house; host or cells: E. coli BL21-(DE3)-Lemo, pET28a vector
[1] = molecular target: T1, BiP NBD (Homo sapiens, UniProt P11021); experiment: Exchange spectroscopy (EXSY) NMR of NBD apo / NBD·Pi exchange; format: binding; details: 25 °C, 400 μM BiP NBD, 200 μM phosphate
Description: ^13C-edited 2D Exchange Spectroscopy (EXSY) experiments were acquired to characterize the exchange between the NBD apo and NDB·Pi state (k3on, k3off). For this purpose, we used a modified methyl-TROSY experiment with an additional EXSY element prior to acquisition (90° ^1H – EXSY mixing delay – 90° ^1H)[49]. A recycle delay of 1 s was used in all experiments. The EXSY mixing times were set to 5, 50, 100, 200, 300, 400, 500, 600, 800, 1000, 1250, 1500 ms, with an average acquisition time of 120 min for each spectrum. The EXSY experiments were performed at 25 °C with a [U-^2H, ^15N, ^12C], Met-[^13CH3]^ε and Ile-[^13CH3]^δ1 BiP NBD sample at 400 μM in NMR buffer (25 mM HEPES, pH 7.5, 150 mM KCl and 20 mM MgCl2) with 200 μM of phosphate.

[2] = molecular target: T1, BiP NBD; experiment: NMR experiment with MABA-ATP (no E1, no E2) and kinetic fit of the MABA-ATP/MABA-ADP functional cycle; format: biochemical; details: for koff / kon / Kd: MABA-ATP instead of ATP; for Kd: T = 37°C; for species: Supplementary Fig 13b
Description: […] After the equilibration time 2D [^13C,^1H]-HMQC spectra were recorded in interleaved mode with 1D ^1H NMR spectra. […] The same setup was used for the alternative experiments by including or excluding E1 and/or E2. When E1 was not included, the ratio of the ATP/ADP NMR signals was used to monitor their relative concentrations.
(§1) (1 picture or pasted object on this page, not shown here)

[3] = molecular target: T1, BiP NBD; experiment: Equilibrium 2D methyl-TROSY NMR fingerprint spectra with ligands (ATP analogs, calcium); format: binding; details: 3.3 mM calcium, 10 mM magnesium
Description: First, we probed calcium binding to ADP-bound NBD by NMR equilibrium experiments. […] (Supplementary Fig. 15d). […] (Supplementary Fig. 16).
AMPPNP (adenylyl imidodiphosphate; Jena-bioscience), AMPPCP (adenylyl methylenediphosphate; Jena-bioscience) and ATP-γ-S (adenosine 5’-(gamma-thiotriphosphate; Jena-bioscience) were dissolved in the HKM reaction buffer (25 mM HEPES, pH 7.5, 150 mM KCl and 10 mM MgCl2) at a concentration of 50 mM directly before to be mixed with the BiP NBD sample. Samples were prepared fresh before each use to minimize the known instability of these analogs that undergo slow hydrolysis in solution.
Supplementary Figure 7. Analysis of the BiP NBD ATP-bound state. a, Combined methyl chemical shift differences between the APD·Pi-bound and the ATP-bound state of BiP NBD in-cyclo. The magnitude of 1 and 1.5 SDs are indicated by an orange and a red line, respectively. b, Overlay of 9 crystal structures of BiP NBD in presence of different nucleotides (colored sticks). c, Backbone root means square deviation (RMSD - Å) between the structures shown in (b) and the NBD apo state (PDB 3LDN). d, 2D [13C,1H]-TROSY spectrum of methyl-labeled BiP NBD in equilibrium with the ATP analogs AMPPNP (green), AMPPCP (orange) or ATP-γ-S (yellow), overlayed with the spectrum in-cyclo (pink).
State- and sequence-specific resonance assignments are indicated for the ADP-bound (light blue), ADP·Pi-bound (dark blue) and the ATP-bound (red) states in-cyclo.
as §1
Supplementary Figure 15. Mapping of calcium binding to BiP NBD. a, Selected details from published structures of BiP. From left to right: yeast BiP(NBD)-Mg2+-ADP (PDB 3QFU), human BiP(NBD)-Mg2+- ADP·Pi (PDB 5EVZ), human BiP(NBD)-Ca2+-ADP (PDB 6ZYH). b, Selected sections of 2D [13C,1H]-methyl-TROSY spectra of residue val50cg1 or Ile52cd1 for the equilibrium experiments of NBD apo (grey), NBD with 5 mM Pi (green), NBD with 1 mM ADP (light blue), NBD with 1 mM ADP·Pi (dark blue), NBD with 1 mM ADP-Ca2+ (dark-pink).and NBD with 3.3 mM calcium ([Mg2+]/[Ca2+]=3) (light-pink). c, Combined methyl chemical shift differences between the BiP NBD APD and the ADP-Ca2+-bound state. The magnitude of 1 and 1.5 SDs are indicated by a light blue and a dark blue line. d, Structure of NBD in […]
the ADP-Ca-bound state (PDB 6ZYH).

T1 sequence (P11021 19-406): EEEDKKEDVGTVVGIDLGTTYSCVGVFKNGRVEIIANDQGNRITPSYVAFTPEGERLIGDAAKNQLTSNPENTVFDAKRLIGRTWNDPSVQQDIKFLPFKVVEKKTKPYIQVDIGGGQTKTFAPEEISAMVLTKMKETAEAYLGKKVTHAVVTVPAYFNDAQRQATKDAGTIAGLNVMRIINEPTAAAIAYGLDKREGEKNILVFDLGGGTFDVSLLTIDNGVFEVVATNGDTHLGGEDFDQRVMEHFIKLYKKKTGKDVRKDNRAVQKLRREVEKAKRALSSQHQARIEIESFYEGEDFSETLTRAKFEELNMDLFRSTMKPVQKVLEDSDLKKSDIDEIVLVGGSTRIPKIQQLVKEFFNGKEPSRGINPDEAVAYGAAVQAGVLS

Row | koff3 (EXSY) [1] | kon3 (EXSY) [1] | koff ([2]; reactions 1MABA, 2MABA, 3) | kon ([2]; reactions 1MABA, 2MABA, 3) | Kd ([2]; reactions 1MABA, 2MABA, 3: release to apo NBD) | koff ([2]; reactions 4MABA, 5MABA) | kon ([2]; reactions 4MABA, 5MABA) | Kd ([2]; reactions 4MABA, 5MABA: release from NBD·MABA-ADP·Pi) | species ([2]; time 4 min) | species ([2]; time 10 min) | species ([2]; time 16 min) | species ([2]; time 22 min) | species ([2]; time 28 min) | species ([2]; time 34 min) | species ([2]; time 40 min) | species ([2]; time 46 min) | species ([2]; time 52 min) | species ([2]; time 58 min) | species ([2]; time 64 min) | calcium binding to ADP-bound NBD (CSPs) [3] | Structure (SMILES)
1 | 1.32 ± 0.31 s⁻¹ | 5000 ± 2000 M⁻¹ s⁻¹ | 1 ± 0.3 s⁻¹ | 3500 ± 500 M⁻¹ s⁻¹ | 280 ± 30 µM | 0.043 s⁻¹ | 120 ± 20 M⁻¹ s⁻¹ | 360 ± 20 µM | 350 µM | 508 µM | 626 µM | 712 µM | 800 µM | 840 µM | 889 µM | 907 µM | 929 µM | 924 µM | 932 µM |  | O=P(O)(O)O [Pi]
2 |  |  |  |  |  |  |  |  |  |  |  |  |  |  |  |  |  |  |  | calcium binding occurred | [Ca+2] [calcium]
